Experimental data taken from patent US7115633B2, “Benzosuberonylpiperdine compounds as analgesics” (GlaxoSmithKline S.p.A., priority 2000, dated 2006).

Structure (SMILES) | melting point [°C]
Cc1ccccc1C1CCN(CC2CCc3c(F)cccc3C(O)C2)CC1.Cl (racemic) | 231 to 233
Cc1cccc2c1CC[C@@H](CN1CCC(c3ccccc3Cl)CC1)C[C@H]2O.Cl (racemic) | > 250
Cl.O[C@@H]1C[C@H](CN2CCC(c3ccccc3Cl)CC2)CCc2c(F)cccc21 (racemic) | 245 to 247

Results, then the compound that gave them:

melting point [°C] | Structure (SMILES)
> 250 | Cc1cccc(C2CCN(C[C@H]3CCc4c(Br)cccc4[C@H](O)C3)CC2)c1.Cl (racemic)
> 250 | Cc1cccc(C2CCN(C[C@@H]3CCc4c(C)cccc4[C@H](O)C3)CC2)c1.Cl (racemic)
